≈ marks a conversion by molar mass, not a printed value. Like-named read-outs stand apart in the source and are kept apart here.
How the values were obtained:
[1] = test system: Acinetobacter baumannii (MDR ACB, Libya, V4); assay: MIC-assay, Mueller-Hinton broth with G-block alginate, 384-well, OD600
MDR Providencia stuartii = assay: MIC-assay, Mueller-Hinton broth with G-block alginate, 384-well, OD600 (Table 11); format: cell-based; details: Providencia stuartii (IR57 India, V7) MDR
Excerpt: (§1) Minimum inhibitory concentration (MICs) of different antibiotics for strains of E. coli and Providencia stuartii displaying MDR phenotypes in the presence of varying concentrations of OligoCF-5/20 (0-10%). (MIC values are expressed in μg ml^−1).

[2] = test system: strains of E. coli displaying MDR phenotypes; assay: as above; format: cell-based; details: Escherichia coli, Escherichia coli (5702, Wales, V11) MDR, read-out: MIC
Excerpt: as §1

[3] = test system: Burkholderia cepacia (1322, V23); assay: MIC-assay, Mueller-Hinton broth with G-block alginate, 384-well, OD600
Streptococcus oralis = assay: MIC-assay, Mueller-Hinton broth with G-block alginate, 384-well, OD600 (Table 12); format: cell-based; details: Streptococcus oralis (5610, V17) MDR, read-out: MIC
Excerpt: (§2) Minimum inhibitory concentration (MICs) of different antibiotics for strains of Streptococcus oralis and Staphylococcus aureus (MRSA) displaying MDR phenotypes in the presence of varying concentrations of OligoCF-5/20 (0-10%). (MIC values are expressed in μg ml^−1).

[4] = test system: Staphylococcus aureus (MRSA) U50; assay: as above; format: cell-based; details: MRSA 1040s, U50 MDR, read-out: MIC
Excerpt: as §2

[5] = test system: strains of Klebsiella pneumoniae displaying MDR phenotypes; assay: MIC-assay, Mueller-Hinton broth with G-block alginate, 384-well, OD600 (Table 10); format: cell-based; details: read-out: MIC
Excerpt: Minimum inhibitory concentration (MICs) of different antibiotics for strains of Klebsiella pneumoniae displaying MDR phenotypes in the presence of varying concentrations of OligoCF-5/20 (0-10%). (MIC values are expressed in μg ml^−1).

CC[C@H]1OC(=O)[C@H](C)[C@@H](O[C@H]2C[C@@](C)(OC)[C@@H](O)[C@H](C)O2)[C@H](C)[C@@H](O[C@@H]2O[C@H](C)C[C@H](N(C)C)[C@H]2O)[C@](C)(O)C[C@@H](C)[C@@H]2N[C@@H](COCCOC)O[C@H]([C@H]2C)[C@]1(C)O [Dirithromycin]
MIC ([1]; Table 9, G-block (OligoCF-5/20) 0%): 64 µg/mL (≈ 76.6 µM)
MIC ([1]; Table 9, G-block (OligoCF-5/20) 2%): 8 µg/mL (≈ 9.58 µM)
MIC ([1]; Table 9, G-block (OligoCF-5/20) 6%): 2 µg/mL (≈ 2.39 µM)
MIC ([1]; Table 9, G-block (OligoCF-5/20) 10%): < 1 µg/mL
MIC (MDR Providencia stuartii; G-block (OligoCF-5/20) 0%): 8 µg/mL (≈ 9.58 µM)
MIC (MDR Providencia stuartii; G-block (OligoCF-5/20) 2%): 4 µg/mL (≈ 4.79 µM)
MIC (MDR Providencia stuartii; G-block (OligoCF-5/20) 6%): 4 µg/mL (≈ 4.79 µM)
MIC (MDR Providencia stuartii; G-block (OligoCF-5/20) 10%): 2 µg/mL (≈ 2.39 µM)
MIC ([2]; G-block (OligoCF-5/20) 0%): 128 µg/mL (≈ 153 µM)
MIC ([2]; G-block (OligoCF-5/20) 2%): 64 µg/mL (≈ 76.6 µM)
MIC ([2]; G-block (OligoCF-5/20) 6%): 32 µg/mL (≈ 38.3 µM)
MIC ([2]; G-block (OligoCF-5/20) 10%): 64 µg/mL (≈ 76.6 µM)
MIC ([3]; Table 8, G-block (OligoCF-5/20) 0%): 256 µg/mL (≈ 307 µM)
MIC ([3]; Table 8, G-block (OligoCF-5/20) 2%): 256 µg/mL (≈ 307 µM)
MIC ([3]; Table 8, G-block (OligoCF-5/20) 6%): 128 µg/mL (≈ 153 µM)
MIC ([3]; Table 8, G-block (OligoCF-5/20) 10%): 64 µg/mL (≈ 76.6 µM)
MIC (Streptococcus oralis; G-block (OligoCF-5/20) 0%): 4 µg/mL (≈ 4.79 µM)
MIC (Streptococcus oralis; G-block (OligoCF-5/20) 2%): 4 µg/mL (≈ 4.79 µM)
MIC (Streptococcus oralis; G-block (OligoCF-5/20) 6%): < 0.0312 µg/mL
MIC (Streptococcus oralis; G-block (OligoCF-5/20) 10%): 0.0312 µg/mL (≈ 0.0374 µM)
MIC ([4]; G-block (OligoCF-5/20) 0%): 1020 µg/mL (≈ 1230 µM)
MIC ([4]; G-block (OligoCF-5/20) 2%): 512 µg/mL (≈ 613 µM)
MIC ([4]; G-block (OligoCF-5/20) 6%): 512 µg/mL (≈ 613 µM)
MIC ([4]; G-block (OligoCF-5/20) 10%): 256 µg/mL (≈ 307 µM)
MIC ([5]; Klebsiella pneumoniae (5712, Wales, V12) MDR, G-block (OligoCF-5/20) 0%): 128 µg/mL (≈ 153 µM)
MIC ([5]; Klebsiella pneumoniae (5712, Wales, V12) MDR, G-block (OligoCF-5/20) 2%): 64 µg/mL (≈ 76.6 µM)
MIC ([5]; Klebsiella pneumoniae (5712, Wales, V12) MDR, G-block (OligoCF-5/20) 6%): 64 µg/mL (≈ 76.6 µM)
MIC ([5]; Klebsiella pneumoniae (5712, Wales, V12) MDR, G-block (OligoCF-5/20) 10%): 32 µg/mL (≈ 38.3 µM)
MIC ([5]; Klebsiella pneumoniae (IR25, India, V6) MDR, G-block (OligoCF-5/20) 0%): 1020 µg/mL (≈ 1230 µM)
MIC ([5]; Klebsiella pneumoniae (IR25, India, V6) MDR, G-block (OligoCF-5/20) 2%): 1020 µg/mL (≈ 1230 µM)
MIC ([5]; Klebsiella pneumoniae (IR25, India, V6) MDR, G-block (OligoCF-5/20) 6%): 512 µg/mL (≈ 613 µM)
MIC ([5]; Klebsiella pneumoniae (IR25, India, V6) MDR, G-block (OligoCF-5/20) 10%): 256 µg/mL (≈ 307 µM)
MIC ([5]; Klebsiella pneumoniae (K3, India, V8) MDR, G-block (OligoCF-5/20) 0%): 256 µg/mL (≈ 307 µM)
MIC ([5]; Klebsiella pneumoniae (K3, India, V8) MDR, G-block (OligoCF-5/20) 2%): 128 µg/mL (≈ 153 µM)
MIC ([5]; Klebsiella pneumoniae (K3, India, V8) MDR, G-block (OligoCF-5/20) 6%): 128 µg/mL (≈ 153 µM)
MIC ([5]; Klebsiella pneumoniae (K3, India, V8) MDR, G-block (OligoCF-5/20) 10%): 128 µg/mL (≈ 153 µM)

— US9801901B2, “Alginate oligomers for use in overcoming multidrug resistance in bacteria” (priority 2009, dated 2017)
